From publication PMC8113725, “Structure–activity relationship of ipglycermide binding to phosphoglycerate mutases” (The Journal of Biological Chemistry, 2021)
Bridge positions count the residues as written; N and C are the ends. Square brackets hold non-standard residues; d marks the D form. Peptide text beside a SMILES is read from it. Phe(4-F) = N[C@@H](Cc1ccc(F)cc1)C(=O)O

What was measured:
[1] = target: C. elegans iPGM (Caenorhabditis elegans, UniProt G5EFZ1); assay: SPR binding kinetics and saturation binding, biotinylated iPGM on Biotin CAPture chip (Biacore S200)
[2] = target: T1, B. malayi iPGM (Brugia malayi, UniProt Q4VWF8); assay: biochemical; assay type: binding
T1 sequence (Q4VWF8 1-515): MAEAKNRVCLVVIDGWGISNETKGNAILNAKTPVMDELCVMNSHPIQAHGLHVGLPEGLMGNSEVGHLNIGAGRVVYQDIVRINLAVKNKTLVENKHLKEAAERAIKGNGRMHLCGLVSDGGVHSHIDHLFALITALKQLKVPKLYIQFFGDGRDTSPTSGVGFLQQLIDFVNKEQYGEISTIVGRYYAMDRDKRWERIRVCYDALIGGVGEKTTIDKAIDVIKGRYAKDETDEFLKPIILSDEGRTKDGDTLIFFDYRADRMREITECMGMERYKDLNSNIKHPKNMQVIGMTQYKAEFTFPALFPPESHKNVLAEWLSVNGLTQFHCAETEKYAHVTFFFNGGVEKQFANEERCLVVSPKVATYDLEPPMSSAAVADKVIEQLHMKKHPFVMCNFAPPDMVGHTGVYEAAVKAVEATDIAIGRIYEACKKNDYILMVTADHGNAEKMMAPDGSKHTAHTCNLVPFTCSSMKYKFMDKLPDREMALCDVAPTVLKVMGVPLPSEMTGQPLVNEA

[3] = target: T2, E. coli iPGM (Escherichia coli, UniProt P37689); assay: SPR binding kinetics and saturation binding, biotinylated iPGM on Biotin CAPture chip (Biacore S200); details: Supplementary Table 5, SPR, E.c. iPGM; LoQ = limit of quantitation
[4] = target: D. immitis iPGM (Dirofilaria immitis, UniProt F4ZE01); assay: biochemical
[5] = target: T2, E. coli iPGM; assay: biochemical; details: […]

Row | SMILES | IC50 ([4]; Di iPGM Ave IC50 (M)) | IC50 [5] | further results
1 | CC(C)C[C@H](NC(=O)[C@H](Cc1ccc(O)cc1)NC(=O)[C@@H]1CSCC(=O)N[C@H](Cc2ccc(O)cc2)C(=O)N[C@@H](CC(=O)O)C(=O)N[C@@H](Cc2ccc(O)cc2)C(=O)N2CCC[C@H]2C(=O)NCC(=O)N[C@@H](CC(=O)O)C(=O)N[C@@H](Cc2ccc(O)cc2)C(=O)N1)C(=O)N[C@@H](Cc1ccc(O)cc1)C(=O)NCC(=O)NCC(=O)NO [Ce-2 T13G, C14NHOH] | 1.84e-07 M | – | Kd [1]: 0.0163 µM; koff [1]: 0.00251 s⁻¹; kon [1]: 197000 M⁻¹ s⁻¹; koff [2]: 0.0284 s⁻¹; kon [2]: 110000 M⁻¹ s⁻¹; Kd ([2]; KD, Supplementary Table 5, SPR, B.m. iPGM, unit inferred): 0.245 µM; koff [3]: > LOQ; kon [3]: > LOQ
2 | CC(C)C[C@H](NC(=O)[C@H](Cc1ccc(O)cc1)NC(=O)[C@@H]1CSCC(=O)N[C@H](Cc2ccc(O)cc2)C(=O)N[C@@H](CC(=O)O)C(=O)N[C@@H](Cc2ccc(O)cc2)C(=O)N2CCC[C@H]2C(=O)NCC(=O)N[C@@H](CC(=O)O)C(=O)N[C@@H](Cc2ccc(F)cc2)C(=O)N1)C(=O)N[C@@H](Cc1ccc(O)cc1)C(=O)NCC(=O)N[C@H](C(=O)N[C@@H](CS)C(N)=O)[C@@H](C)O [Ce-2 Y7(4F)F] | 1.67e-09 M | 12.8 µM | –
3 | CC(C)C[C@H](NC(=O)[C@H](Cc1ccc(O)cc1)NC(=O)[C@@H]1CSCC(=O)N[C@H](Cc2ccc(O)cc2)C(=O)N[C@@H](CC(=O)O)C(=O)N[C@@H](Cc2ccc(O)cc2)C(=O)N2CCC[C@H]2C(=O)NCC(=O)N[C@@H](CC(=O)O)C(=O)N[C@@H](Cc2ccc(O)cc2)C(=O)N1)C(=O)N[C@@H](Cc1ccc(O)cc1)C(=O)NCC(=O)N[C@H](C(=O)NO)[C@@H](C)O [Ce-2 C14NHOH] | 2.55e-09 M | 14 µM | –
4 | CC(C)C[C@H](NC(=O)[C@H](Cc1ccc(F)cc1)NC(=O)[C@@H]1CSCC(=O)N[C@H](Cc2ccc(O)cc2)C(=O)N[C@@H](CC(=O)O)C(=O)N[C@@H](Cc2ccc(O)cc2)C(=O)N2CCC[C@H]2C(=O)NCC(=O)N[C@@H](CC(=O)O)C(=O)N[C@@H](Cc2ccc(O)cc2)C(=O)N1)C(=O)N[C@@H](Cc1ccc(O)cc1)C(=O)NCC(=O)N[C@H](C(=O)N[C@@H](CS)C(N)=O)[C@@H](C)O [Ce-2 Y9(4F)F] ({CH2CO}-[dY]DYPGDYC[Phe(4-F)]LYGTC-NH2; thioether N-8) | 2.8e-09 M | 6.93 µM | –
5 | COc1ccc(C[C@H](NC(=O)[C@H](CC(C)C)NC(=O)[C@H](Cc2ccc(O)cc2)NC(=O)[C@@H]2CSCC(=O)N[C@H](Cc3ccc(O)cc3)C(=O)N[C@@H](CC(=O)O)C(=O)N[C@@H](Cc3ccc(O)cc3)C(=O)N3CCC[C@H]3C(=O)NCC(=O)N[C@@H](CC(=O)O)C(=O)N[C@@H](Cc3ccc(O)cc3)C(=O)N2)C(N)=O)cc1 [Ce-2d Y11(4OMe)F] | 6.05e-08 M | 12.8 µM | –
6 | CC(C)C[C@H](NC(=O)[C@H](Cc1ccc(O)cc1)NC(=O)[C@@H]1CSCC(=O)N[C@H](Cc2ccc(O)cc2)C(=O)N[C@@H](CC(N)=O)C(=O)N[C@@H](Cc2ccc(O)cc2)C(=O)N2CCC[C@H]2C(=O)NCC(=O)N[C@@H](CC(=O)O)C(=O)N[C@@H](Cc2ccc(O)cc2)C(=O)N1)C(=O)N[C@@H](Cc1ccc(O)cc1)C(=O)NCC(=O)N[C@H](C(=O)N[C@@H](CS)C(N)=O)[C@@H](C)O [Ce-2 D2N] ({CH2CO}-[dY]NYPGDYCYLYGTC-NH2; thioether N-8) | 1.99e-09 M | 0.17 µM | IC50 ([4]; IC50 (M)): 1.87e-09 M
7 | COc1ccc(C[C@@H]2NC(=O)CSC[C@@H](C(=O)N[C@@H](Cc3ccc(O)cc3)C(=O)N[C@@H](CC(C)C)C(=O)N[C@@H](Cc3ccc(O)cc3)C(N)=O)NC(=O)[C@H](Cc3ccc(O)cc3)NC(=O)[C@H](CC(=O)O)NC(=O)CNC(=O)[C@@H]3CCCN3C(=O)[C@H](Cc3ccc(O)cc3)NC(=O)[C@H](CC(=O)O)NC2=O)cc1 [Ce-2d Y1(4OMe)F] | 1.87e-08 M | 20 µM | –
